From DBAASP come the findings set out here.

In brackets after ≈: the same amount, converted by molar mass. Several values for one entry are separate records, joined by “and”; a condition that tells them apart may be missing. Equal entries are not always repeated. Bounds are passed on as bounds.

A word on the MIC: it is the least concentration at which growth counts as inhibited. Low values mean a more susceptible organism, high ones a less susceptible organism.

Assay in all cases: ≥ marks a high value that may be exact or a test limit, other limits are often not marked, values filed in µg/mL are converted to µM
The subject of assay [1] is Staphylococcus aureus ATCC 29213.
The subject of assay [2] is Staphylococcus aureus ATCC BAA-44.
The subject of assay [3] is Candida parapsilosis ATCC 22019.
In assay [4] the test system is Klebsiella pneumoniae ATCC 27736.
For assay [5], the system named is Pseudomonas aeruginosa ATCC BAA-427.
In assay [6] the test system is Candida albicans ATCC 10231.
Assay [7] deals with Staphylococcus aureus ATCC 25923.
The test system of assay [8] is Staphylococcus aureus ATCC 700698.
For assay [9], the system named is Bacillus subtilis ATCC 6633.
The test system of assay [10] is Staphylococcus aureus ATCC 33592.
For assay [11], the system named is Staphylococcus aureus ATCC 700699.
The subject of another assay is Cryptococcus neoformans.
Assay [12] concerns Escherichia coli ATCC 9637.
For assay [13], the system named is Paenibacillus alvei LMG 6922.
In assay [14] the test system is Sinorhizobium meliloti ZB314.
For assay [15], the system named is Agrobacterium tumefaciens DSM 3129.
For assay [16], the system named is Escherichia coli NCTC 9001.
The test system of assay [17] is Bacillus thuringiensis serovar tenebrionis DSM 2803.
For assay [18], the system named is Clavibacter michiganensis subsp. insidiosus NCPPB 1109.
Assay [19] concerns Pseudomonas syringae pv. tomato NCPPB 1106.
Assay [20] relates to Serratia marcescens ATCC 17991.
In assay [21] the test system is Brenneria salicis NCPPB 2530.
The subject of assay [22] is Salmonella enterica subsp. enterica serovar Newport.
Assay [23] deals with Bacillus megaterium QMB 1551.
Assay [24] relates to Salmonella typhimurium ATCC 23565.
Assay [25] deals with Bacillus subtilis NRRL B-237.
A further assay has as its system Shigella flexneri CP87.
Assay [26] has as its system Staphylococcus aureus VRSA10.
The test system of assay [27] is Pseudomonas aeruginosa FADDI-PA070.
In assay [28] the test system is Staphylococcus aureus VRSA1.
In assay [29] the test system is Staphylococcus aureus NRS 1.
For assay [30], the system named is Streptococcus pneumoniae ATCC 700677.
For assay [31], the system named is Klebsiella pneumoniae ATCC 700603.
The test system of assay [32] is Staphylococcus aureus NRS 17.
The subject of assay [33] is Klebsiella pneumoniae ATCC BAA-2146.
The test system of assay [34] is Staphylococcus aureus ATCC 43300.
Assay [35] deals with Pseudomonas aeruginosa ATCC 27853.
The subject of assay [36] is Escherichia coli ATCC 25922.
The test system of assay [37] is Acinetobacter baumannii ATCC 19606.
For assay [38], the system named is Franconibacter helveticus DSM 18390.
Assay [39] has as its system Bacillus subtilis DSM 347.
For assay [40], the system named is Escherichia coli DSM 1116.
Assay [41] concerns Staphylococcus xylosus DSM 20267.
Assay [42] has as its system Candida albicans ATCC MYA-2876.
Assay [43] concerns Candida tropicalis ATCC 750.

Consider `CC[C@H](C)[C@H](NC(=O)[C@H](CCCN=C(N)N)NC(=O)CNC(=O)[C@H](CC(C)C)NC(=O)[C@H](CCCCN)NC(=O)[C@H](CCCCN)NC(=O)[C@H](CO)NC(=O)[C@H](Cc1ccccc1)NC(=O)[C@H](Cc1c[nH]c2ccccc12)NC(=O)[C@H](CCCCN)NC(=O)[C@@H](NC(=O)[C@@H](N)Cc1ccccc1)C(C)C)C(=O)N[C@@H](CC(C)C)C(N)=O` [FVKWFSKKLGRIL], for which the MIC in assay [1] was more than 30 µM; in assay [2] it was 30 µM (≈ 48.6 µg/mL); in assay [3], 30 µM (≈ 48.6 µg/mL); in assay [4] it was 15 µM (≈ 24.3 µg/mL); in [5], 15 µM (≈ 24.3 µg/mL); in [6], 30 µM (≈ 48.6 µg/mL). Besides, the MIC was 25 µM and 30 µM and 15.4 µM in assay [7]; 30 µM (≈ 48.6 µg/mL) in assay [8]; 15.2 µM (≈ 24.6 µg/mL) in [9]; 30 µM (≈ 48.6 µg/mL) in [10]; 30 µM (≈ 48.6 µg/mL) in assay [11]; 15 µM (≈ 24.3 µg/mL) in the assay with Cryptococcus neoformans. The same molecule returned an MIC in [12] of 12.5 µM (≈ 20.3 µg/mL).

Turning to `CC[C@H](C)[C@H](NC(=O)[C@@H]1CCCN1C(=O)[C@H](CCCN=C(N)N)NC(=O)[C@H](CC(N)=O)NC(=O)[C@H](CC(N)=O)NC(=O)CN)C(=O)N[C@@H](Cc1ccc(O)cc1)C(=O)N[C@H](C(=O)N1CCC[C@H]1C(=O)N[C@@H](CCC(N)=O)C(=O)N1CCC[C@H]1C(=O)N[C@@H](CCCN=C(N)N)C(=O)N1CCC[C@H]1C(=O)N1CCC[C@H]1C(=O)N[C@@H](Cc1cnc[nH]1)C(=O)N1CCC[C@H]1C(=O)N[C@@H](CCCN=C(N)N)C(=O)N[C@@H](CC(C)C)C(=O)O)[C@@H](C)CC` [GNNRPIYIPQPRPPHPRL], the MIC in [13] was not below 94.2 µM; in assay [14], 9.4 nM (≈ 0.02 µg/mL); in [15], 0.0942 µM (≈ 0.2 µg/mL); in [16], 0.0942 µM (≈ 0.2 µg/mL); in [17], not below 94.2 µM; in assay [18] it was not below 47.1 µM. The MIC in assay [19] was 0.0471 µM (≈ 0.1 µg/mL); in assay [20], not below 94.2 µM; in assay [21], 9.4 nM (≈ 0.02 µg/mL); in [22], 0.0942 µM (≈ 0.2 µg/mL); in assay [23], not below 47.1 µM; in assay [24], 0.0471 µM (≈ 0.1 µg/mL). For the same molecule, the MIC in assay [25] was not below 94.2 µM; with Shigella flexneri CP87, 0.0471 µM (≈ 0.1 µg/mL).

For `CC[C@H](C)[C@H](N)C(=O)N[C@@H](CC(=O)O)C(=O)N[C@@H](Cc1c[nH]c2ccccc12)C(=O)N[C@@H](CCCCN)C(=O)N[C@@H](CCCCN)C(=O)N[C@H](C(=O)N[C@@H](CC(=O)O)C(=O)N[C@@H](Cc1c[nH]c2ccccc12)C(=O)N[C@@H](CCCCN)C(=O)N[C@@H](CCCCN)C(=O)N[C@H](C(=O)N[C@@H](CO)C(=O)N[C@@H](CCCCN)C(=O)N[C@@H](CCCCN)C(=O)N[C@H](C(=O)N[C@@H](CO)C(=O)N[C@@H](CCCCN)C(=O)N[C@H](C(=O)N[C@@H](CCSC)C(=O)N[C@@H](CC(C)C)C(=O)N[C@@H](CCCCN)C(=O)N[C@@H](C)C(=O)N[C@@H](CO)C(=O)N[C@@H](CCCCN)C(=O)N[C@@H](Cc1ccccc1)C(=O)N[C@@H](CC(C)C)C(N)=O)C(C)C)[C@@H](C)O)C(C)C)C(C)C` [IDWKKVDWKKVSKKTSKVMLKASKFL], the MIC in assay [26] came out at 12.8 µM (≈ 40 µg/mL); in [27], 12.8 µM (≈ 40 µg/mL); in assay [28], 12.8 µM (≈ 40 µg/mL); in assay [29], 12.8 µM (≈ 40 µg/mL); in assay [30] it was 12.8 µM (≈ 40 µg/mL); in [31], 9.05 µM (≈ 28.3 µg/mL). Moreover, the MIC in assay [32] was 12.8 µM (≈ 40 µg/mL); in assay [33], 2.26 µM (≈ 7.06 µg/mL); in assay [34] it was more than 12.8 µM; in assay [35] it was more than 12.8 µM; in assay [36] it was 4.53 µM (≈ 14.1 µg/mL); in assay [37], 0.566 µM (≈ 1.77 µg/mL).

For the molecule `CC(C)C[C@H](NC(=O)[C@H](CCCCN)NC(=O)[C@H](CC(C)C)NC(=O)[C@H](CCCCN)NC(=O)[C@H](CC(C)C)NC(=O)[C@@H](N)CCCCN)C(N)=O` [KLKLKL], the MIC in [38], in assay [39], in [40] and in assay [41] was not below 345 µM in each case.

Turning to `CC[C@H](C)[C@H](NC(=O)[C@H](Cc1ccc(O)cc1)NC(=O)[C@@H](N)CCCN=C(N)N)C(=O)N[C@@H](Cc1ccc(O)cc1)C(=O)N[C@@H](CC(C)C)C(=O)N[C@@H](CO)C(=O)NCC(=O)N[C@H](C(=O)N[C@@H](CC(=O)O)C(=O)N[C@@H](CCCN=C(N)N)C(=O)N[C@H](C(=O)N[C@H](C(=O)N[C@@H](CCCN=C(N)N)C(=O)N[C@@H](C)C(=O)N[C@@H](CCCCN)C(=O)N[C@@H](CC(C)C)C(=O)NCC(=O)N[C@@H](CCCCN)C(=O)O)[C@@H](C)CC)[C@@H](C)CC)[C@@H](C)O` [RYIYLSGTDRIIRAKLGK], the MIC in assay [42] and in [43] was not below 40 µM in each case.
